Assay results: patent US8609708B2 (Human BioMolecular Research Institute, priority 2003, dated 2013)
Like-named read-outs stand apart in the source and are kept apart here.

Assays:
[1] = molecular target: CYP3A4 (Homo sapiens (Human), UniProt P08684); assay: CYP3A4 inhibition assay (testosterone 6-hydroxylation); details: read-out: CYP3A4 IC50; testosterone 6-hydroxylation
Procedure: (§1) To gain insight into the selectivity of the synthetic compounds, nicotine, nicotine related alkaloids and nicotine metabolites for inhibition of other CYPs, we examined the major CYP present in human liver (i.e., CYP 3A4). […] A typical incubation mixture ([…] ), 0.5 mM NADP^+, 2.0 mM G6P, 1 U of G6P dehydrogenase, […] inhibitor was added last as to minimize interaction with the protein. After mixing on ice, the reaction was initiated by the addition of substrate and incubated at 37° C. with shaking in air. Organic extracts were injected onto a Hitachi L-7100 system equipped with a Hitachi L-7400 UV detector. Separations were done with an Altex Ultrasphere ODS (4.6 mm×250 mm, 5 μm) column. The analytes were eluted with an isocratic solvent system consisting of water/acetonitrile/methanol (30:10:60, v/v/v) at a flow rate of 1.0 mL/min. […] Quantification of substrate and metabolite was determined from peak areas of the chromatogram and comparison with standard curves. IC50 values were determined as described below.
(§2) To measure CYP3A4 activity, testosterone 6-hydroxylation was determined.

[2] = molecular target: CYP3A4 relative to CYP2A6 (Homo sapiens (Human), UniProt P08684); assay: in vitro; details: human, pH 7.5, Selectivity Ratio: IC50 (Inhibition of CYP3A4)/IC50 (Inhibition of CYP2A6), Table 1
CYP3A4 relative to CYP2A6, sequence (P08684 whole entry): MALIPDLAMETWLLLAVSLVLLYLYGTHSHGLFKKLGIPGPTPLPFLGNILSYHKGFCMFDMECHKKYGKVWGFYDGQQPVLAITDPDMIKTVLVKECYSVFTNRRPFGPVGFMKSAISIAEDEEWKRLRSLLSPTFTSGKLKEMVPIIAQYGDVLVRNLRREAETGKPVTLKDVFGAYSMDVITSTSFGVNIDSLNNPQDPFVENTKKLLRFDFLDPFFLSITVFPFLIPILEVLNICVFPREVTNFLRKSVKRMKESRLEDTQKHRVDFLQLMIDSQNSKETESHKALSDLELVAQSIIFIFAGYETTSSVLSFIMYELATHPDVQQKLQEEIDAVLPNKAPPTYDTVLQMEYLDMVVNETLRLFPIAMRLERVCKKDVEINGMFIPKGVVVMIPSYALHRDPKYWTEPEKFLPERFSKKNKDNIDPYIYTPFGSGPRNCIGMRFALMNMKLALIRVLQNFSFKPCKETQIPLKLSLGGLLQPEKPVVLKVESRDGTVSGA
Procedure: as §1, §2

[3] = molecular target: T1, human CYP2A6 (Homo sapiens (Human), UniProt P11509); assay: CYP2A6 mediated coumarin 7-hydroxylation inhibition; details: for IC50: read-out: CYP2A6 IC50
T1 sequence (P11509 whole entry, the tested form may be a part): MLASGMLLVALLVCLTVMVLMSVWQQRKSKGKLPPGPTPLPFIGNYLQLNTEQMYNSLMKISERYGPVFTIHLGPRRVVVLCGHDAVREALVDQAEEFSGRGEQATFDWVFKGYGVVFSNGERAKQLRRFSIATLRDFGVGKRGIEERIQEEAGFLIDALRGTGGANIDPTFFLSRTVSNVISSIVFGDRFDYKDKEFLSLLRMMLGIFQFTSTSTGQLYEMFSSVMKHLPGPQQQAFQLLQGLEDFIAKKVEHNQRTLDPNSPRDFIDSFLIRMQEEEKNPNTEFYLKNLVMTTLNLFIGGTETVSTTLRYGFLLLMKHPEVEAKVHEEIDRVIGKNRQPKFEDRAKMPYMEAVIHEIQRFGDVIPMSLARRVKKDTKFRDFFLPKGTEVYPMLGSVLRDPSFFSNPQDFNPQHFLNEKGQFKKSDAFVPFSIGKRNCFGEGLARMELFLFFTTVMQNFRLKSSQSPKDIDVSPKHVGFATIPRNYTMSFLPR

[4] = molecular target: P450 2A6dH (Homo sapiens (Human), UniProt P11509, INS494HHHH); assay: Difference spectra of test compounds with N-terminal truncated CYP2A6; details: difference spectrum with truncated CYP2A6
P450 2A6dH, sequence (P11509 other isoform, or with tags, fused parts or gaps 1-28 replaced by MAKKTS/ins HHHH behind 494): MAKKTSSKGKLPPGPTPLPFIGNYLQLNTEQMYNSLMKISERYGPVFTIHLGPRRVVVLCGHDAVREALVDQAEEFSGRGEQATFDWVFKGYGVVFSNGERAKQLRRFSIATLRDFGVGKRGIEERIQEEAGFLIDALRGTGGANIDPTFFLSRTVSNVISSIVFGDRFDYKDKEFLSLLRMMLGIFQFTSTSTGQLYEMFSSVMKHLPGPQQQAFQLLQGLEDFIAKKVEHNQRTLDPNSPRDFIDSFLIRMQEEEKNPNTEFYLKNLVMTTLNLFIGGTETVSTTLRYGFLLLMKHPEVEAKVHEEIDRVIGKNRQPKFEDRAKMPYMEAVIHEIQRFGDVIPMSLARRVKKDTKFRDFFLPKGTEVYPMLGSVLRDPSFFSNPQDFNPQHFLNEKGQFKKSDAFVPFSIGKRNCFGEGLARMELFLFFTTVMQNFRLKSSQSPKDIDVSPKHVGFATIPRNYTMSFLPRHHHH
Procedure: Subsequently, test compound (in 100% ethanol, 10 μM) was added to both the cuvettes. The maximal ethanol concentration used was 2%. The difference spectra were obtained after the system reached equilibrium (3 min). All spectra were recorded at 25° C.

[5] = molecular target: CYP2E1 (Homo sapiens (Human), UniProt P05181); assay: CYP2E1 Vivid blue substrate O-dealkylation inhibition; format: biochemical; details: human CYP2E1 versus human CYP2A6
CYP2E1, sequence (P05181 whole entry): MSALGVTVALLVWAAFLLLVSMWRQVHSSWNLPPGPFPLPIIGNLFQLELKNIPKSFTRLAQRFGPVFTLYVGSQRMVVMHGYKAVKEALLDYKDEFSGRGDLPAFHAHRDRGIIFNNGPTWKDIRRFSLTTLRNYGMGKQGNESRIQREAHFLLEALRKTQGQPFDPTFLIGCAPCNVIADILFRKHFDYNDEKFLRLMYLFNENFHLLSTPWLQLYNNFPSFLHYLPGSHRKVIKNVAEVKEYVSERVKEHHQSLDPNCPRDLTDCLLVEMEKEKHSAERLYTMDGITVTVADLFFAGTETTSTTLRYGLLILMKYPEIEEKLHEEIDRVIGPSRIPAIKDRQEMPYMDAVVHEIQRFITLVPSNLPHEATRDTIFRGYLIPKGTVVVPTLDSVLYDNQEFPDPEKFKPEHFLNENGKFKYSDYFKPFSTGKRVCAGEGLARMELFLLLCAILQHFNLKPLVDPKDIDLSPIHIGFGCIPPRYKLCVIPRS

[6] = molecular target: CYP2B6 (Homo sapiens (Human), UniProt P20813); assay: CYP2B6 Vivid blue substrate O-dealkylation inhibition; format: biochemical; details: human CYP2B6 versus human CYP2A6
CYP2B6, sequence (P20813 whole entry): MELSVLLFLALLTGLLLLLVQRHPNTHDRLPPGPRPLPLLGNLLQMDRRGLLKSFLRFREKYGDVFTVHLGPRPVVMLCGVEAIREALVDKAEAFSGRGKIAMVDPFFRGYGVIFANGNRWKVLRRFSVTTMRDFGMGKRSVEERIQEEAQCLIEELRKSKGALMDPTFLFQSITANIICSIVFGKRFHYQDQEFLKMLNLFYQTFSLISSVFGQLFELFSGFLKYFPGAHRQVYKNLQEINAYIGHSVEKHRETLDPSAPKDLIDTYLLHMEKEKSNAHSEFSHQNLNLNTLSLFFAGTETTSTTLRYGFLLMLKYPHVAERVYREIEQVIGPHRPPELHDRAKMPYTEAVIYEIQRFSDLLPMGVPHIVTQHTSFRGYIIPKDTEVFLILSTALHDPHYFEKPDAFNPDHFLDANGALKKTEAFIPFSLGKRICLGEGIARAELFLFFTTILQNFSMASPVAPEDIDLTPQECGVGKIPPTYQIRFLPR

[7] = molecular target: CYP2C9 (Homo sapiens (Human), UniProt P11712); assay: CYP2C9 Vivid blue substrate O-dealkylation inhibition; format: biochemical
CYP2C9, sequence (P11712 whole entry): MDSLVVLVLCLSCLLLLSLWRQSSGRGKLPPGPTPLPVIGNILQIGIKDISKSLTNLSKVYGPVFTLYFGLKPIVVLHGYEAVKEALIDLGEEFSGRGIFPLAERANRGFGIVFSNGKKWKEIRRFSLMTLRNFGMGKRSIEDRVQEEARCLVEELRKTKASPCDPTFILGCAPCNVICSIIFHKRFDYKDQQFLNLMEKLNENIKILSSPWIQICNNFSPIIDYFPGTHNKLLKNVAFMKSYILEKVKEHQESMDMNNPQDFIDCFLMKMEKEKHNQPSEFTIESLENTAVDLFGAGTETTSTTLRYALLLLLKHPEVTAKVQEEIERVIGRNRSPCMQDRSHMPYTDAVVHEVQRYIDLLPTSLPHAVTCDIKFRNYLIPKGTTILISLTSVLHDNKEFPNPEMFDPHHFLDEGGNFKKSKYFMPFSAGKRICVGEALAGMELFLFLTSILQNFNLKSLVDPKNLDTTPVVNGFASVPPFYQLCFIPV

[8] = molecular target: CYP2C19 (Homo sapiens (Human), UniProt P33261); assay: CYP2C19 Vivid blue substrate O-dealkylation inhibition; format: biochemical
CYP2C19, sequence (P33261 whole entry): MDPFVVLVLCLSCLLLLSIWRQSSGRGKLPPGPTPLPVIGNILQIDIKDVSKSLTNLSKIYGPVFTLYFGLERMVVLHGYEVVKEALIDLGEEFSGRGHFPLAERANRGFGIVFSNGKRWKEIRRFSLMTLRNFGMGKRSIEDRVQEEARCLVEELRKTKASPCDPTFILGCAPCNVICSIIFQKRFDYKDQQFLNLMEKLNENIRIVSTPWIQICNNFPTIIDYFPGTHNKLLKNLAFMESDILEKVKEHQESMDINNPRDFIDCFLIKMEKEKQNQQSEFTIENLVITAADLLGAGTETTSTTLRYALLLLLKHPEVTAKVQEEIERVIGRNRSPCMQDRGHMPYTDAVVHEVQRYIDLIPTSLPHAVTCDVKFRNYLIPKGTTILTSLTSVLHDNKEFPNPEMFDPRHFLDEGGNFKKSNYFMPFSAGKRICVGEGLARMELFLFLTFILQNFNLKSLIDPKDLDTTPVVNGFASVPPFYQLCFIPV

[9] = molecular target: CYP2D6 (Homo sapiens (Human), UniProt P10635); assay: CYP2D6 Vivid blue substrate O-dealkylation inhibition; format: biochemical; details: human CYP2D6 versus human CYP2A6
CYP2D6, sequence (P10635 whole entry): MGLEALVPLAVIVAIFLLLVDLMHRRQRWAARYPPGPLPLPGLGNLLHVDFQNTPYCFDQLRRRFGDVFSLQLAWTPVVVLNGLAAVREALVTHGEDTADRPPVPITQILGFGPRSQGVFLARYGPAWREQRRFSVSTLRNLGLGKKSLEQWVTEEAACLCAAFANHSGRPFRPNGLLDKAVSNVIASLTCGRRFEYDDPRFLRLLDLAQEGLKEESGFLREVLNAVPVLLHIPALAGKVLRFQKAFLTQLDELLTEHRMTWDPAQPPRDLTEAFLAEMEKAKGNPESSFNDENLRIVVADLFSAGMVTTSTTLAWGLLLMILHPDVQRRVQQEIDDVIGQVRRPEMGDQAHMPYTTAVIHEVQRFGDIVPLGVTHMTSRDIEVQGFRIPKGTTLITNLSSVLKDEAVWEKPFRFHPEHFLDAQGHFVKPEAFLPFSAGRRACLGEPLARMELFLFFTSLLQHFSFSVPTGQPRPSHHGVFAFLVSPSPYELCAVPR

[10] = molecular target: T1, human CYP2A6; details: human, pH 7.5
[11] = molecular target: CYP2A13 (Homo sapiens (Human), UniProt Q16696); assay: Inhibition of human CYP2A13; details: for inhibition at 1 µM: human
CYP2A13, sequence (Q16696 whole entry): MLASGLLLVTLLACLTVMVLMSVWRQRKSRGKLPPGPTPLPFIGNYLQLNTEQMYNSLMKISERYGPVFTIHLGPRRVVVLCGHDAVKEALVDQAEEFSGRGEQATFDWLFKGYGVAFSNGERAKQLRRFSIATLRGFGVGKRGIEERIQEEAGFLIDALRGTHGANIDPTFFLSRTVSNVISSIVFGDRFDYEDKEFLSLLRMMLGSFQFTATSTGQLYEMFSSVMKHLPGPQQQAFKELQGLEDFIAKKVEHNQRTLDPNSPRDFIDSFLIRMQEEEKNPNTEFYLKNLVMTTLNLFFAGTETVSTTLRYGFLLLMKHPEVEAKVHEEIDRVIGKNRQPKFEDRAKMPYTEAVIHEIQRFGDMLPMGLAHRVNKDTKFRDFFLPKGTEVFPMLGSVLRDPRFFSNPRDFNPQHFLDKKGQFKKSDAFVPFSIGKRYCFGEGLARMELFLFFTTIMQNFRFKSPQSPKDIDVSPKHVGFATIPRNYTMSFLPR

CYP3A4, sequence (P08684 whole entry): as the sequence (P08684 whole entry) above

**Q.** Which results are given for Cc1ccc(-c2cccnc2)nc1 [Compound 46]?
**A.** IC50 [1]: 84.2 ± 19.5 µM; selectivity ratio [2]: 5; IC50 ([3]; coumarin 7-hydroxylation): 16.5 ± 3.8 µM

**Q.** What does the source list for Cc1cncc(-c2sccc2C)c1 [Compound 55, 3-Methyl-5-(3-methylthiophen-2-yl)pyridine]?
**A.** Ki ([3]; coumarin 7-hydroxylation, apparent Ki from IC50 by Cheng-Prusoff): 11 ± 1.5 µM; fold decrease of CYP2A6 inhibitor potency ([3]; relative to compound 9): 110 fold; binding type [4]: type 1

**Q.** How did the “Selectivity ratio (IC50 CYPX/IC50 CYP2A6) 2E1/2A6” value [5] turn out when OCc1ccc(-c2cccnc2)s1 [Compound 61] was run?
**A.** The value was 58.

**Q.** What about the “Selectivity ratio (IC50 CYPX/IC50 CYP2A6) 2B6/2A6” value [6] of the same compound?
**A.** Its value is 363.

**Q.** What about the “2C9/2A6 selectivity ratio (IC50 CYPX/IC50 CYP2A6)” value [7] of the same compound?
**A.** Its value is over 400.

**Q.** And the “Selectivity ratio (IC50 CYPX/IC50 CYP2A6) 2C9/2A6” value ([7]; human CYP2C9 versus human CYP2A6)?
**A.** The value was over 400.

**Q.** What about the “2C19/2A6 selectivity ratio (IC50 CYPX/IC50 CYP2A6)” value [8] of the same compound?
**A.** Its value is over 294.

**Q.** What about the “Selectivity ratio (IC50 CYPX/IC50 CYP2A6) 2C19/2A6” value ([8]; human CYP2C19 versus human CYP2A6) of the same compound?
**A.** Its value is over 294.

**Q.** What about the “Selectivity ratio (IC50 CYPX/IC50 CYP2A6) 2D6/2A6” value [9] of the same compound?
**A.** The value was 297.

**Q.** And the IC50 [10]?
**A.** The IC50 was 33.5 ± 4.42 µM.

**Q.** Nc1ccc(-c2cccnc2)s1 [TD-I-137] was tested. Which inhibition at 1 µM [11] did it give?
**A.** Its inhibition at 1 µM is 0%.

**Q.** What about the IC50 ([3]; coumarin 7-hydroxylation) of the same compound?
**A.** The IC50 was 3.51 ± 0.28 µM.

**Q.** What does the source list for Cc1ccsc1-c1ccc(F)nc1 [TD-II-077]?
**A.** IC50 [10]: 1.29 ± 0.14 µM; IC50 [11]: 1 to 5 µM

**Q.** Which inhibition at 1 µM [11] does the source give for c1ccc(Cn2cnc(-c3cccnc3)c2)cc1 [TD-II-111] here?
**A.** The inhibition at 1 µM was 17%.

**Q.** What about the IC50 ([3]; coumarin 7-hydroxylation) of the same compound?
**A.** Its IC50 is 1.39 ± 0.19 µM.

**Q.** Which inhibition at 1 µM [11] does the source give for c1cncc(-n2cncn2)c1 [TD-II-143] here?
**A.** The inhibition at 1 µM was 18%.

**Q.** And the IC50 ([3]; coumarin 7-hydroxylation)?
**A.** Its IC50 is 4.2 ± 0.8 µM.

**Q.** What does the source list for Clc1cc(-c2cccnc2)c(Cl)s1 [TD-III-081 38]?
**A.** inhibition at 1 µM [11]: 19%; IC50 ([3]; coumarin 7-hydroxylation): 2.41 ± 0.29 µM

**Q.** Which inhibition at 1 µM [11] does the source give for Clc1sccc1-c1cccnc1 [TD-III-083 37] here?
**A.** The inhibition at 1 µM was 13%.

**Q.** And the IC50 ([3]; coumarin 7-hydroxylation)?
**A.** Its IC50 is 1.82 ± 0.17 µM.

**Q.** With Clc1ccc(-c2cccnc2)s1 [TD-III-085 39] as the compound, how does the IC50 [11] read?
**A.** Its IC50 is 1 to 5 µM.

**Q.** And the inhibition at 1 µM [11]?
**A.** The inhibition at 1 µM was 27%.

**Q.** And the IC50 ([3]; coumarin 7-hydroxylation)?
**A.** Its IC50 is 4.67 ± 0.61 µM.

**Q.** How did the IC50 [11] turn out when Cc1ccsc1-c1cncc(-c2sccc2C)c1 [TD-IV-011 SSP 33] was run?
**A.** Its IC50 is 1 to 5 µM.

**Q.** And the inhibition at 1 µM [11]?
**A.** Its inhibition at 1 µM is 19%.

**Q.** And the IC50 ([3]; coumarin 7-hydroxylation)?
**A.** Its IC50 is 1.63 ± 0.65 µM.

**Q.** With CNCc1ccc(-c2cccnc2)o1 [TD-IV-099 34] as the compound, how does the inhibition at 1 µM [11] read?
**A.** The inhibition at 1 µM was 0%.

**Q.** What about the IC50 ([3]; coumarin 7-hydroxylation) of the same compound?
**A.** Its IC50 is 1.6 ± 0.34 µM.

**Q.** Which results are given for SCc1ccc(-c2cccnc2)o1 [TD-V-111 31]?
**A.** inhibition at 1 µM [11]: 11%; IC50 ([3]; coumarin 7-hydroxylation): < 1.5 µM

**Q.** For CSCc1ccc(-c2cccnc2)o1 [TD-VI-055 32], which inhibition at 1 µM [11] is on record?
**A.** Its inhibition at 1 µM is 16%.

**Q.** And the IC50 ([3]; coumarin 7-hydroxylation)?
**A.** Its IC50 is 1.6 ± 0.19 µM.

**Q.** How did the inhibition at 1 µM [11] turn out when NCc1cc(-c2cccnc2)no1 [TD-VIII-083] was run?
**A.** The inhibition at 1 µM was 7%.

**Q.** What about the IC50 ([3]; coumarin 7-hydroxylation) of the same compound?
**A.** The IC50 was 0.74 ± 0.09 µM.
